Legend:
[1] = tested on: MDA-MB-231 breast carcinoma spheroids; test: Clonogenic survival of MDA-MB-231 spheroids after doxorubicin; type: cell-based, human
Experimental: Following initial cell plating, spheroids formed for 24, 48, 72, 96 or 120 h. At each time point, spheroids were exposed to 200 μM of doxorubicin, then disaggregated and plated for assessment of colony formation (survival).
Spheroids were allowed to form for 72 h. DETA/NO was applied for the final 24 h of spheroid formation. Spheroids were then exposed to doxorubicin for 1 h, prior to disaggregation and plating for assessment of survival by clonogenic assay.
Using human MDA-MB-231 breast carcinoma cells in clonogenic assays, survival was determined following doxorubicin exposure and NO mimetic administration to both monolayer and spheroid cultures.

HIF-1 = HIF-1 accumulation and transactivating activity; type: cell-based; settings: high concentrations (0.1-1 mM); preliminary studies
Description: The promotor region of uPAR contains binding sites for transcription factors such as activator protein-1 (AP-1), Sp-1/3 and nuclear factor κB (NFκB).

[2] = tested on: metalloproteinase (gelatinase); test: Zymography of metalloproteinase (gelatinase) secretion by breast cancer cells; type: cell-based, human; settings: 10^−11 M GTN, 10^−12 M SNP
Experimental: The cells were cultured using a serum-free medium (EX-CELL 300). Following incubation, the medium was extracted and centrifuged at 5,000 RPM for 5 minutes. The supernatant was subsequently collected and stored at −80° C. until further use. SDS-polyacrylamide gels were prepared in accordance with well-known procedures. For the analysis of metalloproteinase secretion, the gel contained 0.1% w/v gelatin, and for the analysis of plasminogen activator secretion, the gel was supplemented with 0.1% w/v casein as well as plasminogen (50 μg/mL). The serum-free conditioned medium was then combined with a nonreducing sample loading buffer (0.5 M Tris, 10% SDS, 1% Bromophenol Blue in 2 mL glycerol) in a ratio of 4:1 and was not boiled. Following electrophoresis, the gels underwent two 15 minute washes with 2.5% Triton X-100. This step removed the SDS. After the washes with H2O, the gels were incubated overnight at 37° C. in a solution containing Tris-HCl (pH 7.0) and CaCl2 (5 mM). The gels were stained with 0.4% Coomassie Brilliant Blue R-250 in 40% methanol/10% glacial acetic acid/50% distilled water for approximately 1 hour, and then destained for about 2 hours in 30% methanol/10% glacial acetic acid/60% distilled water. […]

[3] = tested on: prostate specific antigen (PSA); test: PSA levels in prostate cancer patients on low dose transdermal GTN; type: in vivo, human
Experimental: Patients with prostatic adenocarcinoma were selected for this study because the progression of this type of cancer correlates well with the plasma levels of prostate-specific antigen (PSA). Thus, the outcome of low dose NO mimetic therapy can be easily assessed by measuring PSA levels. […] Plasma PSA levels were measured via a commercially available immunoassay kit such as Immuno 1 (Bayer Corporation).
Methods: Patients with a previous history of prostatectomy that have experienced biochemical failure as per the ASTRO criteria (three successive rises in PSA), PSA<10 (units), stable with sub-clinical disease were included in the study after signing an informed consent. All patients were placed on treatment with continuous low dose transdermal nitroglycerin (˜0.03 mg/hr, 24 hours a day). Subjects returned to the study centre for monthly PSA measurements. Subjects were withdrawn from the study if there was evidence of disease progression or other intervening medical events.

[4] = tested on: HTR-8/SVneo invasive trophoblast cells; test: In vitro Matrigel invasion assay, HTR-8/SVneo; type: cell-based; settings: Homo sapiens, read-out: inhibition of invasiveness of hypoxic cells
Experimental: The chambers consist of cell culture inserts, 6.5 mm in diameter and with a 8 μm pore size membrane. Each membrane was coated with 100 μL of a 1 mg/mL solution of Matrigel diluted in cold serum-free culture medium (EX-CELL 300), and allowed to dry in a laminar flow cabinet for approximately 12 hours. The Matrigel was then rehydrated by incubating it with 100 μL of serum-free medium for approximately 1 hour. After rehydration, cell suspensions containing 5.0×10^4 or 1.0×10^5 cells in 100 μL of medium, containing both serum and the nitric oxide treatments, were added to each well. Culture medium containing serum and the respective nitric oxide treatment were then added to each insert. The cells were incubated for 24 hours under either hypoxic (1% O2) or control (20% O2) conditions. Following incubation, the non-invading cells were removed from the upper surface of the membrane by wiping with a cotton swab. The cells on the lower surface of the membrane were fixed for 10 minutes with Carnoy's fixative (25% acetic acid, 75% methanol), and then stained for approximately 3 hours with a 1% toluidine blue, 1% sodium borate solution. […] Invading cells were then viewed under the microscope at 40× magnification and counted. The invasion index for each treatment was calculated by dividing the number of invading cells by the number of cells which invaded under standard conditions. […]

O=[N+]([O-])OCC(CO[N+](=O)[O-])O[N+](=O)[O-] [GTN, glyceryl trinitrate]
survival of control (doxorubicin-untreated) cells ([1]; DETA 0.1 mM and 2 μM, GTN 0.1 nM and 1 μM): did not affect the survival
attenuation of resistance to 200 μM doxorubicin associated with 3D culture ([1]; spheroids): 30%
HIF-1 accumulation and transactivating activity (HIF-1): inhibit HIF-1 accumulation and transactivating activity
gelatinases secreted vs untreated hypoxic cells [2]: decrease in gelatinases secreted
plasma PSA levels ([3]; GTN 0.033 mg/hour transdermal patches, recurrent prostatic adenocarcinoma, two patients, within two months): sharp decline
PSA velocity, first two treatment episodes ([3]; one patient, prostate intact, on anti-androgen therapy, GTN 0.03 mg/hour, about one month each): reduction of PSA velocity
PSA levels, third treatment episode ([3]; one patient, prostate intact, GTN 0.03 mg/hour, about one month): decrease in PSA levels
time to PSA decrease with combined radiation therapy ([3]; one patient, chronic transdermal GTN 0.03 mg/hour, radiation alone expected average twelve months): within three months
mean PSA velocity on therapy ([3]; transdermal ~0.03 mg/hr 24 hours a day, 5 or more months of therapy, decreased from 14%/month, post-prostatectomy biochemical failure): 5.4 %/month
drug related adverse events ([3]; transdermal ~0.03 mg/hr, 24 hours a day): No patients experienced drug related adverse events
inhibition at 0.1 µM [4]: 56.2%

Reference: patent US8168232B2, “Formulations and methods of using nitric oxide mimetics in cancer treatment” (priority 2000, dated 2012)
